Data: patent US20240148821A1, “PHARMACEUTICAL USE OF CYCLIC PEPTIDE COMPOUND” (CHUGAI SEIYAKU KABUSHIKI KAISHA, priority 2021, published 2024)
pIC50: −log10 of the molar value. Numbered stars: 1 amine (or outer) side, 2 acyl side, 3 side chain; on linkers, the order of the positions; unused ones are H or OH. Bridge positions count the residues as written; N and C are the ends. Square brackets hold non-standard residues; d marks the D form. Peptide text beside a SMILES is read from it. * marks the point of attachment. hPhe(3-Cl-4-CF3) = N[C@@H](CCc1ccc(C(F)(F)F)c(Cl)c1)C(=O)O; hPhe(4-CF3) = N[C@@H](CCc1ccc(C(F)(F)F)cc1)C(=O)O; ACHC(1R,2R) = O=C([C@@H]1CCCC[C@H]1N[*:1])[*:2]; NMePhe(4-Cl) = CN[C@@H](Cc1ccc(Cl)cc1)C(=O)O; NMeGly(cPent) = CN[C@H](C(=O)O)C1CCCC1; NMeCha = CN[C@@H](CC1CCCCC1)C(=O)O; NMeChg = CN[C@H](C(=O)O)C1CCCCC1; NMeT = CN[C@H](C(=O)O)[C@@H](C)O; N(CH2CH2)2CF2 = FC1(F)CCN(*)CC1; NMeD = CN[C@@H](CC(=O)O)C(=O)O; NMeL = CN[C@@H](CC(C)C)C(=O)O; NMeV = CN[C@H](C(=O)O)C(C)C; d(β3hA) = C[C@@H](N)CC(=O)O; NMeS = CN[C@@H](CO)C(=O)O; dPip = O=C(O)[C@H]1CCCCN1; NMeA = CN[C@@H](C)C(=O)O; Piperidide = C1CCN(*)CC1; Thz = O=C(O)[C@@H]1CSCN1; dNMeA = CN[C@H](C)C(=O)O; Ac5c = NC1(C(=O)O)CCCC1; Aze = O=C(O)[C@@H]1CCN1; CH2CMe2OH = CC(C)(O)C*; Aib = CC(C)(N)C(=O)O; Cyclopropyl = C1CC1*; Bn = c1ccc(C*)cc1; Sar = CNCC(=O)O

target: protein-protein interaction between Kras and SOS1 (biotin-tagged human Kras loaded with GDP, His-tagged human SOS1) (Homo sapiens (Human), UniProt P01116, G12D); test: Protein-protein interaction inhibition between Kras and SOS1 (KrasG12D-SOS PPI) using AlphaScreen; format: biochemical; conditions: AlphaScreen; biotin-tagged human Kras loaded with GDP, His-tagged human SOS1; read-out: KRAS G12D-SOS PPI IC50;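 further: kras produced in E. coli, Ni-coupled donor beads and streptavidin acceptor beads, excitation 680 nm with emission detected at 520–620 nm via singlet oxygen transfer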

| Compound | pIC50 |
| --- | --- |
| CC[C@H](C)[C@@H]1NC(=O)[C@H](C)N(C)C(=O)C[C@@H](C)NC(=O)[C@H](C2CCCC2)N(C)C(=O)C2(CCCC2)NC(=O)[C@@H]2CCCN2C(=O)[C@H](CCc2ccc(C(F)(F)F)c(Cl)c2)NC(=O)[C@@H](C)N(C)C(=O)[C@H](C(C)C)N(C)C(=O)[C@@H]2CCN2C(=O)[C@H](C)N(C)C1=O [Compound 1066] (cyclo([Ac5c][NMeGly(cPent)][d(β3hA)][NMeA]I[NMeA][Aze][NMeV][dNMeA][hPhe(3-Cl-4-CF3)]P)) | 7.62 |
| CC[C@H](C)[C@@H]1NC(=O)[C@H](C)N(C)C(=O)C[C@@H](C)NC(=O)[C@H](CC(C)C)N(C)C(=O)C(C)(C)NC(=O)[C@H](CC(C)C)N(C)C(=O)[C@H](CCc2ccc(C(F)(F)F)cc2)NC(=O)CN(C)C(=O)[C@H]([C@@H](C)OCc2ccccc2)N(C)C(=O)CN(C)C(=O)CN(C)C1=O [Compound 1067] (cyclo([Aib][NMeL][d(β3hA)][NMeA]I[Sar][Sar][NMeT](Bn)[Sar][hPhe(4-CF3)][NMeL])) | 6.54 |
| CC[C@H](C)[C@@H]1NC(=O)[C@H](C(C)C)N(C)C(=O)C[C@@H](C)NC(=O)[C@H](C(C)C)N(C)C(=O)C2(CCCC2)NC(=O)[C@H](CC(C)C)N(C)C(=O)[C@H](CCc2ccc(C(F)(F)F)c(Cl)c2)NC(=O)CN(C)C(=O)[C@H](Cc2ccc(Cl)cc2)N(C)C(=O)CN(C)C(=O)CN(C)C1=O [Compound 1069] (cyclo([Ac5c][NMeV][d(β3hA)][NMeV]I[Sar][Sar][NMePhe(4-Cl)][Sar][hPhe(3-Cl-4-CF3)][NMeL])) | 7.77 |
| CC[C@H](C)[C@@H]1NC(=O)[C@H](CC(C)C)N(C)C(=O)C[C@@H](C(=O)N2CCCCC2)N(C)C(=O)[C@H](C(C)C)N(C)C(=O)[C@H](C(C)C)NC(=O)[C@H](CC(=O)N2CCC(F)(F)CC2)N(C)C(=O)[C@H](CCc2ccc(C(F)(F)F)c(Cl)c2)NC(=O)CN(C)C(=O)[C@H](CC2CCCCC2)N(C)C(=O)CN(C)C(=O)CN(C)C1=O [Compound 1078] ([NMeL]I[Sar][Sar][NMeCha][Sar][hPhe(3-Cl-4-CF3)][NMeD](N(CH2CH2)2CF2)V[NMeV][NMeD]-Piperidide; lactam N-11) | 6.72 |
| CC[C@H](C)[C@@H]1NC(=O)[C@H](CC(C)C)N(C)C(=O)C[C@@H](C(=O)N2CCCCC2)N(C)C(=O)[C@H](C2CCCCC2)N(C)C(=O)C2(CCCC2)NC(=O)[C@@H]2CSCN2C(=O)[C@H](CCc2ccc(C(F)(F)F)c(Cl)c2)NC(=O)CN(C)C(=O)[C@H](CC2CCCCC2)N(C)C(=O)CN(C)C(=O)CN(C)C1=O [Compound 1093] ([NMeL]I[Sar][Sar][NMeCha][Sar][hPhe(3-Cl-4-CF3)][Thz][Ac5c][NMeChg][NMeD]-Piperidide; lactam N-11) | 9.14 |
| CC[C@H](C)[C@@H]1NC(=O)[C@H](CC(C)C)N(C)C(=O)C[C@@H](C)NC(=O)[C@H](C(C)C)N(C)C(=O)C2(CCCC2)NC(=O)[C@@H]2CCCN2C(=O)[C@H](CCc2ccc(C(F)(F)F)c(Cl)c2)NC(=O)CN(C)C(=O)[C@H](CC2CCCCC2)N(C)C(=O)[C@@H]2CCN2C(=O)[C@H](COC2CC2)N(C)C1=O [Compound 1102] (cyclo([Ac5c][NMeV][d(β3hA)][NMeL]I[NMeS](Cyclopropyl)[Aze][NMeCha][Sar][hPhe(3-Cl-4-CF3)]P)) | 6.80 |
| CC[C@H](C)[C@@H]1NC(=O)[C@H](C)N(C)C(=O)C[C@@H](C(=O)N2CCCCC2)N(C)C(=O)[C@H](C(C)C)N(C)C(=O)C2(CCCC2)NC(=O)[C@@H]2CCCN2C(=O)[C@H](CCc2ccc(C(F)(F)F)c(Cl)c2)NC(=O)[C@H]2CCCCN2C(=O)[C@H](CC2CCCCC2)N(C)C(=O)CN(C)C(=O)CN(C)C1=O [Compound 1118] ([NMeA]I[Sar][Sar][NMeCha][dPip][hPhe(3-Cl-4-CF3)]P[Ac5c][NMeV][NMeD]-Piperidide; lactam N-11) | 6.70 |
| CC[C@H](C)[C@@H]1NC(=O)[C@H](CC(C)C)N(C)C(=O)C[C@@H](C)NC(=O)[C@H](C(C)C)N(C)C(=O)C2(CCCC2)NC(=O)[C@@H]2CCCN2C(=O)[C@H](CCc2ccc(C(F)(F)F)c(Cl)c2)NC(=O)CN(C)C(=O)[C@H](CC2CCCCC2)N(C)C(=O)[C@@H]2CCN2C(=O)[C@H](COCC(C)(C)O)N(C)C1=O [Compound 1122] (cyclo([Ac5c][NMeV][d(β3hA)][NMeL]I[NMeS](CH2CMe2OH)[Aze][NMeCha][Sar][hPhe(3-Cl-4-CF3)]P)) | 7.17 |
| CC[C@H](C)[C@@H]1NC(=O)[C@H](C(C)C)NC(=O)[C@@H]2CCCC[C@H]2NC(=O)[C@H](CC(C)C)N(C)C(=O)C2(CCCC2)NC(=O)[C@H](CC(C)C)N(C)C(=O)[C@H](CCc2ccc(C(F)(F)F)cc2)NC(=O)CN(C)C(=O)[C@H](Cc2ccc(Cl)cc2)N(C)C(=O)CN(C)C(=O)CN(C)C1=O [Compound 1126] (cyclo([Ac5c][NMeL][ACHC(1R,2R)]VI[Sar][Sar][NMePhe(4-Cl)][Sar][hPhe(4-CF3)][NMeL])) | 6.60 |
